As a reminder, the pEC50 is the EC50 on a negative log10 scale, so that one unit is a factor of ten. The low end stands for a large EC50, the high end for a small EC50.

The values that follow come from US9617289B2, “RSV antiviral compounds” (JANSSEN R&D IRELAND, priority 2012, dated 2017).

The assay relates to rgRSV224 virus. The assay is described as follows: Antiviral activity: inhibition of rgRSV224 (GFP-expressing RSV) replication in HeLa cells. In kind it is cell-based, respiratory syncytial virus. The following applies: for EC50: human respiratory syncytial virus, HeLa, 72 h. As to the method: Black 96-well clear-bottom microtiter plates (Corning, Amsterdam, The Netherlands) were filled in duplicate using a customized robot system with serial 4-fold dilutions of compound in a final volume of 50 μl culture medium [RPMI medium without phenol red, 10% FBS, 0.04% gentamycin (50 mg/ml) and 0.5% DMSO]. Then, 100 μl of a HeLa cell suspension (5×10^4 cells/ml) in culture medium was added to each well followed by the addition of 50 μl rgRSV224 (MOI=0.02) virus in culture medium using a multidrop dispenser (Thermo Scientific, Erembodegem, Belgium). rgRSV224 virus is an engineered virus that includes an additional GFP gene (Hallak et al, 2000) and was in-licensed from the NIH (Bethesda, Md., USA). Medium, virus- and mock-infected controls were included in each test. Cells were incubated at 37° C. in a 5% CO2 atmosphere. Three days post-virus exposure, viral replication was quantified by measuring GFP expression in the cells by a MSM laser microscope (Tibotec, Beerse, Belgium). The EC50 was defined as the 50% inhibitory concentration for GFP expression. In parallel, compounds were incubated for three days in a set of white 96-well microtitier plates (Corning) and the cytotoxicity of compounds in HeLa cells was determined by measuring the ATP content of the cells using the ATPlite kit (PerkinElmer, Zaventem, Belgium) according to the manufacturer's instructions. The CC50 was defined as the 50% concentration for cytotoxicity. SI is calculated as CC50/EC50.

Setting [1] is: read-out: pEC50, rgRSV224 (MOI=0.02) in HeLa cells, GFP expression three days post-virus exposure (converted).
The mark [2] stands for this setting: read-out: RSV-wt_pEC50, rgRSV224 (MOI=0.02) in HeLa cells, GFP expression three days post-virus exposure.

Structures can show the parent of a compound that is named as a salt. Where two headings read alike, the source gives them in different places.

With `CC(C)(C)OC(=O)N1CCC2(CC1)C(=O)N(Cc1cc3cc(Cl)ccc3n1CCCC#N)c1cnccc12` [Compound 63, tert-butyl 1′-((5-chloro-1-(3-cyanopropyl)-1H-indol-2-yl)-methyl)-2′-oxo-1′,2′-dihydrospiro[piperidine-4,3′-pyrrolo-[2,3-c]pyridine]-1-carboxylate], the EC50 under setting [1] was 0.158 nM. Consider `CC(=O)N1CCC2(CC1)C(=O)N(Cc1cc3cc(Cl)ccc3n1CCCC#N)c1cnccc12` [Compound 64, 4-(2-((1-acetyl-2′-oxospiro[piperidine-4,3′-pyrrolo[2,3-c]-pyridin]-1′(2′H)-yl)methyl)-5-chloro-1H-indol-1-yl)butane-nitrile], for which the EC50 under setting [1] is 0.251 nM.

`O=C1N(Cc2nc3nc(Cl)ccc3n2CCCC(F)(F)F)c2cnccc2C12CCCC2` [Compound 65, 1′-((5-chloro-1-(4,4,4-trifluorobutyl)-1H-imidazo[4,5-b]-pyridin-2-yl)methyl)spiro[cyclopentane-l,3′-pyrrolo[2,3-c]-pyridin]-2′(1′H)-one]: under setting [1], the EC50 was 0.631 nM. As for `CC(C)(C)OC(=O)N1CCC2(CC1)C(=O)N(Cc1nc3ncccc3n1CCCC(F)(F)F)c1cnccc12` [Compound 66, tert-butyl-2′-oxo-1′-((1-(4,4,4-trifluorobutyl)-1H-imidazo-[4,5-b]pyridine-2-yl)methyl)-1′,2′-dihydrospiro[piperidine-4,3′-pyrrolo[2,3-c]pyridine]-1-carboxylate], the EC50 under setting [1] is 3.16 nM.

In turn, `O=C1N(Cc2nc3nc(Cl)ccc3n2CCCC(F)(F)F)c2cnccc2C12CCOCC2` [Compound 67, 1′-((5-chloro-1-(4,4,4-trifluorobutyl)-1H-imidazo[4,5-b]-pyridin-2-yl)methyl)-2,3,5,6-tetrahydrospiro[pyran-4,3′-pyrrolo[2,3-c]pyridin]-2′(1′H)-one] registered a negative logarithm of the EC50 (pEC50) (rgRSV224 (MOI=0.02) in HeLa cells, GFP expression three days post-virus exposure) of 10.3. In the case of `CC(C)(C)OC(=O)N1CCC2(CC1)C(=O)N(Cc1nc3nc(Cl)ccc3n1CCCC(F)(F)F)c1cnccc12` [Compound 68, tert-butyl-1′-((5-chloro-1-(4,4,4-trifluorobutyl)-1H-imidazo-[4,5-b]pyridin-2-yl)methyl)-2′-oxo-1′,2′-dihydrospiro-[piperidine-4,3′-pyrrolo[2,3-c]pyridine]-1-carboxylate], the EC50 under setting [1] is 0.501 nM. The same measure, in the same setting: with `CC(C)(C)OC(=O)N1CCC2(CC1)C(=O)N(Cc1cc3nc(Cl)ccc3n1CCCCF)c1cnccc12` [Compound 69, tert-butyl 1′-((5-chloro-1-(4-fluorobutyl)-1H-pyrrolo[3,2-b]-pyridin-2-yl)methy)-2′-oxo-1′,2′-dihydrospiro[piperidine-4,3′-pyrrolo[2,3-c]pyridine]-1-carboxylate] the figure was 5.01 nM; with `CC(C)(O)C(=O)N1CCC2(CC1)C(=O)N(Cc1cc3cc(Cl)ccc3n1CCCS(C)(=O)=O)c1cnccc12` [Compound 74, 1′-((5-chloro-1-(3-(methylsulfonyl)propyl)-1H-indol-2-yl)-methyl)-1-(2-hydroxy-2-methylpropanoyl)spiro[piperidine-4,3′-pyrrolo[2,3-c]pyridin]-2′(1′H)-one], 0.2 nM; with `COC(=O)N1CCC2(CC1)C(=O)N(Cc1cc3cc(Cl)ccc3n1CCCC#N)c1cnccc12` [Compound 76], less than 0.158 nM. Turning to `CC(C)OC(=O)N1CCC2(CC1)C(=O)N(Cc1cc3cc(Cl)ccc3n1CCCC#N)c1cnccc12` [Compound 77, isopropyl 1′-((5-chloro-1-(3-cyanopropyl)-1H-indol-2-yl)-methyl)-2′-oxo-1′,2′-dihydrospiro[piperidine-4,3′-pyrrolo-[2,3-c]pyridine]-1-carboxylate], the EC50 under setting [1] was less than 0.158 nM. Same read-out and setting: the figure for `N#CCCCn1c(CN2C(=O)C3(CCNCC3)c3ccncc32)cc2cc(Cl)ccc21` [Compound 78, 4-(5-chloro-2-((2′-oxospiro[piperidine-4,3′-pyrrolo[2,3-c]-pyridin]-1′(2′H)-yl)methyl)-1H-indol-1-yl)butanenitrile hydrochloride] is 0.631 nM. The same measure, in the same setting: the figure for `N#CCCCn1c(CN2C(=O)C3(CCNCC3)c3ccncc32)nc2cc(Cl)ccc21` [Compound 84, 4-(5-chloro)-2-((2′-oxospiro[piperidine-4,3′-pyrrolo[2,3-c]-pyridin]-1′(2′H)-yl)methyl)-1H-benzo[d]imidazol-1-yl)butanenitrile hydrochloride] is 0.631 nM; for `CC(C)(O)C(=O)N1CCC2(CC1)C(=O)N(Cc1cc3cc(Cl)ccc3n1CCCC#N)c1cnccc12` [Compound 86, 4-(5-chloro-2-((1-(2-hydroxy-2-methylpropanoyl)-2′-oxospiro[piperidine-4,3′-pyrrolo[2,3-c]pyridin]-1′(2′H)-yl)methyl)-1H-indol-1-yl)butanenitrile] it is less than 0.158 nM. Still for that read-out and setting: the figure for `CC(=O)N1CC2(C1)C(=O)N(Cc1nc3cc(Cl)ccc3n1CCCC#N)c1ccccc12` [Compound 88, 4-(2-((1-acetyl-2′-oxospiro[azetidine-3,3′-indolin]-1′-yl)-methyl)-5-chloro-1H-benzo[d]imidazol-1-yl)butanenitrile] is 0.398 nM; for `N#CCCCn1c(CN2C(=O)C3(CCN(S(N)(=O)=O)CC3)c3ccncc32)nc2cc(Cl)ccc21` [Compound 89, 1′-((5-chloro-1-(3-cyanopropyl)-1H-benzo[d]imidazol-2-yl)-methyl)-2′-oxo-1′,2′-dihydrospiro[piperidine-4,3′-pyrrolo-[2,3-c]pyridine]-1-sulfonamide] it is 0.0794 nM.

For the compound `N#CCCCn1c(CN2C(=O)C3(CN(S(=O)(=O)c4cccs4)C3)c3ccccc32)nc2cc(Cl)ccc21` [Compound 91], the EC50 under setting [2] was 0.234 nM. As to `N#CCCCn1c(CN2C(=O)C3(CN(C(=O)OC4COC4)C3)c3ccccc32)nc2cc(Cl)ccc21` [Compound 92, Oxetan-3-yl 1′-{[5-chloro-1-(3-cyanopropyl)-1H-benzimidazol-2-yl]methyl}-2′-oxo-1′,2′-dihydro-1H-spiro[azetidine-3,3′-indole]-1-carboxylate], under setting [2], the EC50 was 0.0692 nM. `N#CCCCn1c(CN2C(=O)C3(CN(S(=O)(=O)c4ccc(F)cc4)C3)c3ccccc32)nc2cc(Cl)ccc21` [Compound 93, 4-[5-Chroro-2-({1-[(4-fluorophenyl)sulfonyl]-2′-oxospiro-[azetidine-3,3′-indol]-1′(2′H)-yl}methyl)-1H-benzimidazol-1-yl]butanenitrile]: the EC50 under setting [2] was 1.62 nM. The same measure, in the same setting: the figure for `CC(=O)NS(=O)(=O)N1CCC2(CC1)C(=O)N(Cc1nc3cc(Cl)ccc3n1CCCC#N)c1cnccc12` [Compound 95, N-[(1′-{[5-Chloro-1-(3-cyanopropyl)-1H-benzimidazol-2-yl]methyl}-2′-oxo-1′,2′-dihydro-1H-spiro[piperidine-4,3′-pyrrolo[2,3-c]pyridin]-1-yl)sulfonyl]acetamide] is 0.0794 nM; for `N#CCCCn1c(CN2C(=O)C3(CCN(S(=O)(=O)c4cccs4)CC3)c3ccncc32)cc2cc(Cl)ccc21` [Compound 96, 4-(5-Chloro-2-{[2′-oxo-1-(thiophen-2-ylsulfonyl)spiro-[piperidine-4,3′-pyrrolo[2,3-c]pyridin]-1′(2′H)-yl]methyl}-1H-indol-1-yl)butanenitrile] it is 0.427 nM; for `CC(C)CCn1c(CN2C(=O)C3(CCN(C(=O)OC(C)(C)C)CC3)c3ccncc32)cc2cnccc21` [Compound 97, tert-Butyl 1′-{[1-(3-methylbutyl)-1H-pyrrolo[3,2-c]pyridin-2-yl]methyl}-2′-oxo-1,2′-dihydro-1H-spiro[piperidine-4,3′-pyrrolo[2,3-c]pyridine]-1-carboxylate] it is 1.45 nM.

Take `COC(=O)N1CCC2(CC1)C(=O)N(Cc1nc3cc(Cl)ccc3n1CCCC#N)c1cnccc12` [Compound 98, Methyl 1′-{[5-chloro-1-(3-cyanopropyl)-1H-benzimidazol-2-yl]methyl}-2′-oxo-1′,2′-dihydro-1H-spiro[piperidine-4,3′-pyrrolo[2,3-c]pyridine]-1-carboxylate]: the EC50 under setting [2] was 0.0676 nM.

In the case of `CC(C)OC(=O)N1CCC2(CC1)C(=O)N(Cc1nc3cc(Cl)ccc3n1CCCC#N)c1cnccc12` [Compound 99, 1-Methylethyl 1′-{[5-chloro-1-(3-cyanopropyl)-1H-benzimidazol-2-yl]methyl}-2′-oxo-1′,2′-dihydro-1H-spiro[piperidine-4,3′-pyrrolo[2,3-c]pyridine]-1-carboxylate], under setting [2], the EC50 is 0.024 nM. The same measure, in the same setting: with `NC(=O)CCCn1c(CN2C(=O)C3(CNC3)c3ccccc32)nc2cc(Cl)ccc21` [Compound 100, 4-{5-Chloro-2-[(2′-oxospiro[azetidine-3,3′-indol]-1′(2′H)-yl)methyl]-1H-benzimidazol-1-yl}butanamide] the figure was 263 nM; with `N#CCCCn1c(CN2C(=O)C3(CNC3)c3ccccc32)nc2cc(Cl)ccc21` [Compound 101, 4-{5-Chloro-2-[(2′-oxospiro[azetidine-3,3′-indol]-1′(2′H)-yl)methyl]-1H-benzimidazol-1-yl}butanenitrile], 0.891 nM.
